Reference: US20210387978A1, “CYCLOBUTYL DIHYDROQUINOLINE SULFONAMIDE COMPOUNDS” (AMGEN INC., priority 2020, published 2021)

Molecular target: T1, Human Nav1.7 (Homo sapiens, UniProt Q15858)
T1 construct: expressed in transfected cells; host or cells: Spiking HEK cells (without Kir2.1 transfection)
Experiment: IonWorks Barracuda (IWB) automated patch clamp assay
Type: cell-based
Conditions: human Nav1.7 currents, HEK cells, population patch-clamp, state- and use-dependent voltage protocol; read-out: hNaV1.7 IWB-U IC50
Protocol: Ionaworks Barracuda […] Automated Patch Clamp Assay (Same Protocol for Both Human and Mouse)
Human Nav1.7 currents were recorded in population patch-clamp mode with the IWB automated electrophysiology system (Molecular Devices, LLC, Sunnyvale, Calif.). Spiking HEK cells (without Kir2.1 transfection) were cultured and prepared for recordings as previously described for IonWorks Quattro testing^1. The external solution consisted of the following (in mM): NaCl 140, KCl 5, CaCl2 2, MgCl2 1, HEPES 10, and glucose 11, pH 7.4, with N-methyl-D-glucamine at 320 mOsmol. […] From a holding potential of −110 mV, currents were elicited by a train of 26 depolarizations of 150 ms duration to −20 mV at a frequency of 5 Hz. Cells were then clamped to −20 mV for a period of 4 minutes in the presence of a single concentration of test compound. Following this compound incubation period, cells were clamped to −110 mV for three seconds to recover unbound channels and put through the same 26 pulse voltage protocol as above. Peak inward current during the 26th pulse to −20 mV in the presence of compound was divided by the peak inward current evoked by the 26th pulse to −20 mV in the absence of compound to determine percent inhibition. Concentration-response curves of percent inhibition as a function of concentration were generated to calculate IC50 values as described in Kornecook, T. J.; Yin, R.; Altmann, S.; et al. Pharmacologic Characterization of AMG8379, a Potent and Selective Small Molecule Sulfonamide Antagonist of the Voltage-Gated Sodium Channel NaV1. 7.
The potency of the compounds of the present invention were evaluated on human Nav1.7 channels using the above described IonWorks Barracuda automated electrophysiology platform that evaluates the ability of compounds to block sodium conductance through Nav1.7 channels. A voltage-protocol that prosecutes both state-dependent as well as use-dependent inhibition was used as these modes of action are thought to be more relevant for the native state of Nav1.7 channels in pain sensing neurons in vivo.

T1 sequence (Q15858 whole entry): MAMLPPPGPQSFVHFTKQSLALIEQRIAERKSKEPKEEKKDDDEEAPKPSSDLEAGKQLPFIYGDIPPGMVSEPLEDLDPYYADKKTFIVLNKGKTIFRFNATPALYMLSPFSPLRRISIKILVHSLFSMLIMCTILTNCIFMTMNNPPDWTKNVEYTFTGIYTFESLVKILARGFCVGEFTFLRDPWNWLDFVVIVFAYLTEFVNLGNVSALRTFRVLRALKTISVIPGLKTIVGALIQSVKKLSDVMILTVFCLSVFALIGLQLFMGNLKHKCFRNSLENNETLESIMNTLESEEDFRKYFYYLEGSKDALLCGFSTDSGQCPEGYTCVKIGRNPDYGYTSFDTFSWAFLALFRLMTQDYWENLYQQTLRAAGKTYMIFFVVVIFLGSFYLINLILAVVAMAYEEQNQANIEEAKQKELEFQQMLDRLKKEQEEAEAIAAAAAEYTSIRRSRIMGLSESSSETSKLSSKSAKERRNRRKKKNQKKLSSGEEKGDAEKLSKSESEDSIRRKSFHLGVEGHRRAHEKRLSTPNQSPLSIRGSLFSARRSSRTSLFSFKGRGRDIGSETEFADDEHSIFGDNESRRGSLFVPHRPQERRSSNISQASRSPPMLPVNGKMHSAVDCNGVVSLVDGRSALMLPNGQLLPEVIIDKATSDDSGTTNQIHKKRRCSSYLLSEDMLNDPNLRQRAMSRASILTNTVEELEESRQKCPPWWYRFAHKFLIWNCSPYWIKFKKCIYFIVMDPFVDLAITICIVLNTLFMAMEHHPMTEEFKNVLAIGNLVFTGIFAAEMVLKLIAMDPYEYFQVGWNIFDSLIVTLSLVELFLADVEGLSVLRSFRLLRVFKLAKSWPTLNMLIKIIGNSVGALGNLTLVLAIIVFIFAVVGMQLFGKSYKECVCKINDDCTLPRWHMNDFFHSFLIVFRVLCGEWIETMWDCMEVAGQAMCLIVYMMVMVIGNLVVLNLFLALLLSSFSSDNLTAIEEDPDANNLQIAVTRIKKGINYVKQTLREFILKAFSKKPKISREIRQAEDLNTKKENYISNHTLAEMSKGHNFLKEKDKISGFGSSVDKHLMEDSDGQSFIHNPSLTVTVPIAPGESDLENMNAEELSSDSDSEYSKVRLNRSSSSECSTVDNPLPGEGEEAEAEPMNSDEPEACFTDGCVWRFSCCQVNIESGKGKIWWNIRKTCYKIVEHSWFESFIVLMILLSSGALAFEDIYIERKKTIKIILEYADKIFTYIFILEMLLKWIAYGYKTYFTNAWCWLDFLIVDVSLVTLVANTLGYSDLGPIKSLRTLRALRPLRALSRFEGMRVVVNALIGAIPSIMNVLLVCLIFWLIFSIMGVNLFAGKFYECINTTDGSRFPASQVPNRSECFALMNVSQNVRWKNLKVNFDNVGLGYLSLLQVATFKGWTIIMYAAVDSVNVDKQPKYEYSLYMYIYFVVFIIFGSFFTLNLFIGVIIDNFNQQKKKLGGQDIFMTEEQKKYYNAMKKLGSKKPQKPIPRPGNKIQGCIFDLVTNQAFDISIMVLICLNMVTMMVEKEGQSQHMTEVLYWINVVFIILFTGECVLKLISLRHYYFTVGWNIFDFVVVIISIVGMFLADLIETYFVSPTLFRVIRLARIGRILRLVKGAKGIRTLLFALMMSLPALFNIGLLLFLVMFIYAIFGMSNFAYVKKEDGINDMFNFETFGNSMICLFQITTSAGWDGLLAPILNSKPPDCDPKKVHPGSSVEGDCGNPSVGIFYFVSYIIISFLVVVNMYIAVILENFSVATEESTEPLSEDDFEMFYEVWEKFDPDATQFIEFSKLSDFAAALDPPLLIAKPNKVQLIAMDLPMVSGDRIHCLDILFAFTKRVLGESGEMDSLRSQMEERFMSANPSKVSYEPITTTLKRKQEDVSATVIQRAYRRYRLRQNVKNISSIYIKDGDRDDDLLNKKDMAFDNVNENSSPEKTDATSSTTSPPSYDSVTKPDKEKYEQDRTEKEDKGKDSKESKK

IC50 [nM]	Structure (SMILES)
10	COc1cc(C2CC(F)(F)C2)c(Cl)cc1-n1c(=O)ccc2cc(S(=O)(=O)Nc3ccon3)ccc21 (atropisomer, axis not shown; (P)) [Example 48, (P)-1-(5-chloro-4-(3,3-difluorocyclobutyl)-2-methoxyphenyl)-N-(isoxazol-3-yl)-2-oxo-1,2-dihydroquinoline-6-sulfonamide]
20	COc1cc([C@H]2C[C@H](C(F)(F)F)C2)ccc1-n1c(=O)ccc2cc(S(=O)(=O)Nc3ccon3)ccc21 (atropisomer, axis not shown; (P)) [Example 35, trans-(P)—N-(isoxazol-3-yl)-1-(2-methoxy-4-(3-(trifluoromethyl)cyclobutyl)phenyl)-2-oxo-1,2-dihydroquinoline-6-sulfonamide]
18	COc1cc([C@H]2C[C@@H](C(F)(F)F)C2)c(Cl)cc1-n1c(=O)ccc2cc(S(=O)(=O)Nc3ncccn3)ccc21 (atropisomer, axis not shown; (P)) [Example 16, cis-(P)-1-(5-chloro-2-methoxy-4-(3-(trifluoromethyl)cyclobutyl)phenyl)-2-oxo-N-(pyrimidin-2-yl)-1,2-dihydroquinoline-6-sulfonamide]
14	COc1cc([C@H]2C[C@H](C(F)(F)F)C2)ccc1-n1c(=O)ccc2cc(S(=O)(=O)Nc3ncccn3)ccc21 (atropisomer, axis not shown; (P)) [Example 36, trans-(P)-1-(2-methoxy-4-((1R,3R)-3-(trifluoromethyl)cyclobutyl)phenyl)-2-oxo-N-(pyrimidin-2-yl)-1,2-dihydroquinoline-6-sulfonamide]
33	COc1cc(C2CC(C(C)(C)C)C2)c(F)cc1-n1c(=O)ccc2cc(S(=O)(=O)Nc3ccon3)ccc21 (atropisomer, axis not shown; (P)) [Example 3, (P)-1-(4-(3-(tert-butyl)cyclobutyl)-5-fluoro-2-methoxyphenyl)-N-(isoxazol-3-yl)-2-oxo-1,2-dihydroquinoline-6-sulfonamide]
11	COc1cc([C@H]2C[C@H](C(F)(F)F)C2)c(F)cc1-n1c(=O)ccc2cc(S(=O)(=O)Nc3cccnn3)ccc21 (atropisomer, axis not shown; (P)) [Example 39, trans-(P)-1-(5-fluoro-2-methoxy-4-(3-(trifluoromethyl)cyclobutyl)phenyl)-2-oxo-N-(pyridazin-3-yl)-1,2-dihydroquinoline-6-sulfonamide]
16	COc1cc(C2CCC2)c(F)cc1-n1c(=O)ccc2cc(S(=O)(=O)Nc3ccon3)ccc21 (atropisomer, axis not shown; (P)) [Example 14, (P)-1-(4-cyclobutyl-5-fluoro-2-methoxyphenyl)-N-(isoxazol-3-yl)-2-oxo-1,2-dihydroquinoline-6-sulfonamide]
15	COc1cc(C2CC(F)(F)C2)c(F)cc1-n1c(=O)ccc2cc(S(=O)(=O)Nc3ccon3)ccc21 (atropisomer, axis not shown; (P)) [Example 4, (P)-1-(4-(3,3-difluorocyclobutyl)-5-fluoro-2-methoxyphenyl)-N-(isoxazol-3-yl)-2-oxo-1,2-dihydroquinoline-6-sulfonamide]
2	COc1cc(C2CC(F)(C(F)(F)F)C2)c(F)cc1-n1c(=O)ccc2cc(S(=O)(=O)Nc3ccon3)ccc21 (atropisomer, axis not shown; (P)) [Example 5, (P)-1-(5-fluoro-4-(3-fluoro-3-(trifluoromethyl)cyclobutyl)-2-methoxyphenyl)-N-(isoxazol-3-yl)-2-oxo-1,2-dihydroquinoline-6-sulfonamide]
2	COc1cc([C@H]2C[C@@](F)(C(F)(F)F)C2)c(Cl)cc1-n1c(=O)ccc2cc(S(=O)(=O)Nc3ccon3)ccc21 (atropisomer, axis not shown; (P)) [Example 11, trans-(P)-1-(5-chloro-4-(3-fluoro-3-(trifluoromethyl)cyclobutyl)-2-methoxyphenyl)-N-(isoxazol-3-yl)-2-oxo-1,2-dihydroquinoline-6-sulfonamide]
